Laboratory results taken from patent US20110173718A1, “HERBICIDE TOLERANT PLANTS” (SYNGENTA CROP PROTECTION, INC., priority 2008, published 2011).

Tested on: tobacco plants expressing Wheat HPPD
Experiment: Glasshouse spray test, wheat HPPD transgenic tobacco
Assay type: in vivo
Conditions: Wheat HPPD T1
Source text: Transgenic lines of tobacco, soyabean and corn etc. can be engineered to express various heterologous HPPDs derived from, for example Avena (SEQ ID #26), Wheat (SEQ ID #27), Pseudomonas fluorescens (SEQ ID # 25) and Shewanella colwelliana (SEQ ID #28) as, for example, described in WO 02/46387.
Single copy events amongst the T1 plant lines are identified by their 3:1 segregation ratio (wrt kanamycin and or herbicide) and by quantitative RT-PCR. Seed from the thus selected T1 tobacco (var Samsun) lines are sown in 3 inch diameter pots containing 50% peat, 50% John Innes soil no 3. After growth to the 3 leaf stage, plants are sprayed, as described above, in order to test for herbicide tolerance relative to like-treated non-transgenic tobacco plants. […]
Exactly as described in example 5 of WO 02/46387 the wheat HPPD gene sequence (Embl DD064495) is cloned behind an Arabidopsis Rubisco small subunit (SSU) promoter and in front of a nos gene terminator to produce an SSU Wheat HPPD nos expression cassette' which is cloned into a binary vector and transformed into tobacco to produce a population of 30-50 transgenic events.

Q: How did the “% damage observed 16 DAT” value (37 g/ha) turn out when O=c1c(-c2c(F)ccc(F)c2Cl)c(O)c2nccnc2n1CC(F)F [Compound 2.3] was run?
A: 0%

Q: And the “% damage observed 16 DAT” value (111 g/ha)?
A: 0%

Q: And the “% damage observed 16 DAT” value (333 g/ha)?
A: 3%

Q: What about the “% damage observed 16 DAT” value (1000 g/ha) of the same compound?
A: 8%
